Molecular target: cGMP-specific 3',5'-cyclic phosphodiesterase PDE5A (Homo sapiens) (UniProt O76074)
Assay: Inhibition of human platelet PDE5

In the case of `CS(=O)(=O)Nc1ccc(C(=O)O[C@@H](Cc2c(Cl)c[n+]([O-])cc2Cl)c2ccc(OC(F)F)c(OCC3CC3)c2)cc1OCC1CC1` [Chf-6001], the IC50 is reported as over 1000 nM.

Reference: BindingDB's records for doi:10.1021/jm401549m (Chiesi Farmaceutici, 2014)
